Measured values published in patent US20080125460A1, “Imidazopyridine-Derivatives As Inducible No-Synthase Inhibitors” (Altana Pharma AG, priority 2003, published 2008).

Experiments:
[1] = molecular target: human inducible NO-synthase (Homo sapiens, UniProt P35228); assay: Measurement of inducible NO-synthase activity ([3H]arginine conversion); type: biochemical; settings: crude cytosolic fraction containing human inducible NO-synthase; 0.1 μM arginine; 45 to 60 min at 37° C.; read-out: Inhibition of iNOS activity [measured as -logIC50 (mol/l)] (converted)
Description: The assay is performed in 96well microtiter F-plates (Greiner, Frickenhausen, FRG) in a total volume of 100 μl in the presence of 100 nM calmodulin, 226 μM CaCl2, 477 μM MgCl2, 5 μM flavin-adenine-dinucleotide (FAD), 5 μM flavin mononucleotide (FMN), 0.1 mM NADPH, 7 mM glutathione, 10 μM BH4 and 100 mM HEPES pH 7.2. Arginine concentrations are 0.1 μM for enzyme inhibition experiments. 150000 dpm of [^3H]arginine are added to the assay mixture. Enzyme reaction is started by the addition of 4 μg of a crude cytosolic fraction containing human inducible NO-synthase and the reaction mixture is incubated for 45 to 60 min at 37° C. Enzyme reaction is stopped by adding 10 μl of 2M MES-buffer pH 5.0. 50 μl of the incubation mixture are transferred into a MADP N65 filtration microtiter plate (Millipore, Eschborn, FRG) containing already 50 μl of AG-50W-X8 cation exchange resin (Biorad, München, FRG). The resin in the Na loaded form is pre-equilibrated in water and 70 μl (corresponding to 50 μl dry beads) are pipetted under heavy stirring with a 8 channel pipette into the filtration plate. After pipetting 50 μl of the enzyme reaction mixture onto the filtration plates, the plates are placed on a filtration manifold (Porvair, Shepperton, UK) and the flow through is collected in Pico scintillation plates (Packard, Meriden, CT). The resin in the filtration plates is washed with 75 μl of water (1×50 μl and 1×25 μl) which is also collected in the same plate as the sample. The total flow through of 125 μl is mixed with 175 μl of Microscint-40 scintillation cocktail (Packard) and the scintillation plate is sealed with TopSeal P-foil (Packard). Scintillation plates are counted in a scintillation counter.
For the measurement of inducible NO-synthase-inhibiting potencies of compounds increasing concentrations of inhibitors were included into the incubation mixture. IC50-values were calculated from the percent inhibition at given concentrations by nonlinear least square fitting.

Row | Structure (SMILES) | IC50 [1] | melting point
1 | COc1ccnc(CCc2nc3cc(-c4ccco4)cnc3[nH]2)c1 [Example 1, 6-Furan-2-yl-[2-(4-methoxypyridin-2-yl)ethyl]-3H-imidazo[4,5-b]pyridine] | 49 nM | 147 to 148 °C
2 | COc1ccnc(CCc2nc3cc(-c4ccoc4)cnc3[nH]2)c1 [Example 2, 6-Furan-3-yl-[2-(4-methoxypyridin-2-yl)ethyl]-3H-imidazo[4,5-b]pyridine] | 45.7 nM | 193 to 194 °C
3 | COc1ccnc(CCc2nc3cc(-c4ccncc4)cnc3[nH]2)c1 [Example 3, 2-[2-(4-Methoxypyridin-2-yl)ethyl]-6-(pyridin-4-yl)-3H-imidazo-[4,5-b]pyridine] | 55 nM | 237 to 238 °C
4 | COc1ccnc(CCc2nc3cc(-c4cccs4)cnc3[nH]2)c1 [Example 4, 2-[2-(4-Methoxypyridin-2-yl)ethyl]-6-(thiophen-2-yl)-3H-imidazo-[4,5-b]pyridine] | 24.5 nM | 132 to 133 °C
5 | COc1ccnc(CCc2nc3cc(-c4ccsc4)cnc3[nH]2)c1 [Example 5, 2-[2-(4-Methoxypyridin-2-yl)ethyl]-6-(thiophen-3-yl)-3H-imidazo-[4,5-b]pyridine] | 34.7 nM | 154 to 155 °C
6 | COc1ccnc(CCc2nc3cc(-c4ccc5[nH]ccc5c4)cnc3[nH]2)c1 [Example 6, 6-(1H-Indol-5-yl)-2-[2-(4-methoxypyridin-2-yl)ethyl)-3H-imidazo-[4,5-b]pyridine] | 49 nM | 241 to 242 °C
7 | COc1ccnc(CCc2nc3cc(-c4nc5ccccc5[nH]4)cnc3[nH]2)c1 [Example 7, 6-(1H-Benzoimidazol-2-yl)-2-[2-(4-methoxy-pyridin-2-yl)-ethyl]-3H-imidazo[4,5-b]pyridine] | 30.9 to 245 nM | –
8 | COc1ccnc(CCc2nc3cc(-c4nc5cc(C)ccc5[nH]4)cnc3[nH]2)c1 [Example 8, 2-[2-(4-Methoxy-pyridin-2-yl)-ethyl]-6-(5-methyl-1H-benzoimidazol-2-yl)-3H-imidazo[4,5-b]pyridine] | 30.9 to 245 nM | –
9 | COc1ccnc(CCc2nc3cc(-c4csc5ccccc45)cnc3[nH]2)c1 [Example 9, 6-Benzo[b]thiophen-3-yl-2-[2-(4-methoxy-pyridin-2-yl)-ethyl]-3H-imidazo[4,5-b]pyridine] | 30.9 to 245 nM | –
10 | COc1ccnc(CCc2nc3cc(-c4cc5ccccc5o4)cnc3[nH]2)c1 [Example 10, 6-Benzofuran-2-yl-2-[2-(4-methoxy-pyridin-2-yl)-ethyl]-3H-imidazo[4,5-b]pyridine] | 30.9 to 245 nM | –
11 | COc1ccnc(CCc2nc3cc(-c4cc5ccccc5s4)cnc3[nH]2)c1 [Example 11, 6-Benzo[b]thiophen-2-yl-2-[2-(4-methoxy-pyridin-2-yl)-ethyl]-3H-imidazo[4,5-b]pyridine] | 30.9 to 245 nM | –
12 | COc1ccnc(CCc2nc3cc(-c4ccc(C)s4)cnc3[nH]2)c1 [Example 12, 2-[2-(4-Methoxy-pyridin-2-yl)-ethyl]-6-(5-methyl-thiophen-2-yl)-3H-imidazo[4,5-b]pyridine] | 30.9 to 245 nM | –
13 | COc1ccnc(CCc2nc3cc(-c4ccc(-c5ccccc5)s4)cnc3[nH]2)c1 [Example 13, 2-[2-(4-Methoxy-pyridin-2-yl)-ethyl]-6-(5-phenyl-thiophen-2-yl)-3H-imidazo[4,5-b]pyridine] | 30.9 to 245 nM | –
